Test results published in ChEMBL document CHEMBL1157847, “Dichloro-4-quinolinol-3-carboxylic acid: synthesis and antioxidant abilities to scavenge radicals and to protect methyl linoleate and DNA” (Eur J Med Chem, 2010).

Experiments:
Type in all cases: functional
[1] = Antioxidant activity against AAPH-induced DNA damage assessed as TBARS production at 200 uM after 4 hrs relative to control
[2] = Antioxidant activity against Cu(2+)/GSH-induced DNA damage assessed as TBARS production at 200 uM after 4 hrs relative to control
[3] = Antioxidant activity against AAPH-induced linoleic acid oxidation assessed as exhausted methyl linoleate at 2 mM after 4 hrs relative to control
[4] = Antioxidant activity against beta-carotene bleaching assessed as decrease of absorbance at 0.3 mM after 100 mins relative to control; set-up: scale not given: the % may be the effect or the level left
[5] = Antioxidant activity assessed as residual galvinoxyl radical scavenging activity at 1.5 mM after 30 mins relative to control
[6] = test system: Radical scavenging activity; assay: Antioxidant activity assessed as residual DPPH radical scavenging activity at 1.5 mM after 30 mins relative to control
[7] = Antioxidant activity against hydroxyl radical-induced DNA damage assessed as TBARS production at 400 uM after 30 mins relative to control
[8] = Antioxidant activity assessed as residual ABTS cationic radical scavenging activity at 1.5 mM after 30 mins relative to control

O=C(O)c1cnc2c(Cl)ccc(Cl)c2c1O showed an Activity [1] of 95.4%, an Activity [2] of 103% and an Activity [3] of 62.7%. For the same compound, the Activity [4] was 77.3%, the Activity [5] was 104% and the Activity [6] was 94.1%. It also gave an Activity [7] of 84.6% and an Activity [8] of 99.9%.
Compound O=C(O)c1cnc2ccccc2c1O has an Activity [1] of 103%, an Activity [2] of 96.6% and an Activity [3] of 113%. For the same compound, the Activity [4] was 77.3%, the Activity [5] was 102% and the Activity [6] was 94.6%. It also gave an Activity [7] of 90.4% and an Activity [8] of 101%.
Compound O=C(O)c1cnc2cc(Cl)ccc2c1O has an Activity [1] of 95%, an Activity [2] of 88.9% and an Activity [3] of 107%. For the same compound, the Activity [4] was 91.1%, the Activity [5] was 104% and the Activity [6] was 94.7%. It also gave an Activity [7] of 102% and an Activity [8] of 102%.
Compound O=C(O)c1cnc2c(Cl)c(Cl)ccc2c1O has an Activity [1] of 97.9%, an Activity [2] of 111% and an Activity [3] of 41.9%. For the same compound, the Activity [4] was 108%, the Activity [5] was 102% and the Activity [6] was 93.4%. The Activity [7] was 88.7% and the Activity [8] was 97.5%.
O=C(O)c1cnc2c(Cl)cc(Cl)cc2c1O showed an Activity [1] of 99.4%, an Activity [2] of 95.4% and an Activity [3] of 7.3%. It also gave an Activity [4] of 129%, an Activity [5] of 104% and an Activity [6] of 93.8%. It also gave an Activity [7] of 83.3% and an Activity [8] of 104%.
O=C(O)c1cnc2cc(Cl)cc(Cl)c2c1O gave an Activity [1] of 98.6%, an Activity [2] of 98.3% and an Activity [3] of 111%. The Activity [4] was 77.3%, the Activity [5] was 93.5% and the Activity [6] was 91.2%. For the same compound, the Activity [7] was 92.7% and the Activity [8] was 90%.
